Consider 26 compounds from patent publication US20090318551A1, “USES OF ANALOGS OF 3-O-ACETYL-11-KETO-BETA-BOSWELLIC ACID” (priority 2004, published 2009).

In one assay the test system is Artemia salina. As to the kind of experiment: Brine shrimp lethality (BSL) assay. The class given is in vivo. The note with it: nauplii, viability/mortality after 24 hr; for LC50: Artemia salina, read-out: LD50 in mcM. The source says:
Brine shrimp lethality (BSL) assay is a simple bench top bioassay developed by McLaughlin, et. al. (Studies in Natural Product Chemistry, 9, page 383, 1991 and Am. Chem. Soc. Symp. Series, 534, page 114, 1992) and the results obtained by this assay have been reported to be corroborative with the cytotoxicities determined in 9KB and 9PS cells. The procedure involves hatching Artemia salina cysts in a cone shaped vessel and collecting active nauplii after 48 hr and treating with known concentrations of test substances and vehicle (control) in tubes each tube containing 10 nauplii and checking viability/mortality after 24 hr. Percentage lethality was calculated by comparing mean values of control and test sets of three tubes each. LC50 values were obtained from the graph plotted micro molar concentration against percent lethality.

The test system of another assay is 5-Lipoxygenase. As to the kind of experiment: 5-Lox assay (colorimetric, ferric xylenol orange). The class given is biochemical. The note with it: linoleic acid substrate, pH 6.3; for % inhibition @ 250 μM: 250 μM test substance; for % inhibition @ 100 μM: 100 μM test substance. As to the method: The AKBA analogs were screened for their 5-Lipoxygenase inhibitory potential using colorimetric method of Craig A. Gay et al (Anal Biochem., 304, 42 46, 2002). The assay mixture contained 50 mM phosphate buffer pH 6.3, 5-Lipoxygenase, various concentrations of test substances and linoleic acid in a total volume of 0.5 mL after 5 min incubation of above reaction mixture 0.5 ml ferric xylenol orange reagent was added and OD was measured after two minutes at 585 nm using spectrophotometer (varian). Controls were run along with test in a similar manner except using vehicle instead of test substance solution. Percent inhibition was calculated by comparing absorbance of test with that of control

Where a name gives a salt, the structure may show the parent alone.

For `C[C@@H]1CC[C@]2(C)CC[C@]3(C)C(=CC(=O)C4[C@@]5(C)CCC(OC(=O)CCl)[C@](C)(C(=O)O)C5CC[C@]43C)C2[C@H]1C` (stereo partly drawn) [Compound 2, 3-O-(Chloroacetyl)-11-keto-β-boswellic acid], the LC50 in the assay on Artemia salina amounted to 98 µM. In addition, in the assay on 5-Lipoxygenase, the “% inhibition @ 250 μM” value is 3.12%.

As to `CC(=O)OC1CC[C@@]2(C)C(CC[C@]3(C)C2C(=O)C=C2C4[C@@H](C)[C@H](C)CC[C@]4(C)CC[C@]23C)[C@@]1(C)C(=O)NN` (stereo partly drawn) [Compound 20, N-(3-O-Acetyl-11-keto-β-boswelloyl)-hydrazide], the LC50 in the assay on Artemia salina is 2.3 µM. In the assay with 5-Lipoxygenase, the “% inhibition @ 250 μM” value is given as 54.3%.

As to `C[C@@H]1CC[C@]2(C)CC[C@]3(C)C(=CC(O)C4[C@@]5(C)CC[C@@H](O)[C@](C)(C(=O)O)C5CC[C@]43C)C2[C@H]1C` (stereo partly drawn) [Compound 27, 11-Hydroxy-β-boswellic acid], the LC50 with Artemia salina turned out to be 28.3 µM. In addition, the “% inhibition @ 250 μM” value in the assay with 5-Lipoxygenase is listed as 12.2%.

In the case of `CC(=O)OC1CC[C@@]2(C)C(CC[C@]3(C)C2C(=O)C=C2C4[C@@H](C)[C@H](C)CC[C@]4(C)CC[C@]23C)[C@@]1(C)N=C=O` (stereo partly shown) [Compound 24, 3-Acetoxy-11-keto-24-norurs-12-en-4-isocyanate], the LC50 in the assay on Artemia salina was over 100 µM. Moreover, the “% inhibition @ 250 μM” value in the assay on 5-Lipoxygenase came out at 0%.

On to `COc1cc(C=CC(=O)OC2CCC3(C)C(CCC4(C)C3C(=O)C=C3C5C(C)C(C)CCC5(C)CCC34C)C2(C)C(=O)O)cc(O)c1O` (stereo not drawn) [Compound 8, 3-O-(3′,4′-Dihydroxy-5′-methoxycinnamoyl)-11-keto-β-boswellic acid], for which the “LD50 in mcM” value in the assay with Artemia salina came out at 12.0 mcM. Further, the “% inhibition @ 250 μM” value with 5-Lipoxygenase worked out at 8.1%.

With `C[C@@H]1CC[C@]2(C)CC[C@]3(C)C(=CC(=O)C4[C@@]5(C)CC[C@@H](OC(=O)CN)[C@](C)(C(=O)O)C5CC[C@]43C)C2[C@H]1C` (stereo partly drawn) [Compound 10, 3-O-Glycyl-11-keto-β-boswellic acid hydrochloride], the “LD50 in mcM” value in the assay on Artemia salina amounted to 12.0 mcM. In addition, in the assay on 5-Lipoxygenase, the “% inhibition @ 100 μM” value was found to be 23.9%.

Regarding `COC(=O)[C@@]1(C)/C(=N\O)CC[C@@]2(C)C1CC[C@]1(C)C2C(=O)C=C2C3[C@@H](C)[C@H](C)CC[C@]3(C)CC[C@]21C` (stereo partly shown) [Compound 16, Methyl 3-oximino-11-ketours-12-en-24-oate], the LC50 with Artemia salina was over 100 µM. The “% inhibition @ 250 μM” value in the assay with 5-Lipoxygenase was 41.6%.

In the case of `COC(=O)C1(C)C(OC(=O)CNC(=O)OC(C)(C)C)CCC2(C)C1CCC1(C)C2C(=O)C=C2C3C(C)C(C)CCC3(C)CCC21C` (stereo not drawn) [Compound 9, Methyl 3-O-(N-Boc-glycyl)-11-keto-β-boswellate], the “LD50 in mcM” value in the assay on Artemia salina is over 100 mcM. For the same compound, in the assay with 5-Lipoxygenase, the “% inhibition @ 250 μM” value was found to be 16.7%.

As to `CC1CCC2(C)CCC3(C)C(=CC(=O)C4C5(C)CCC(OC(=O)CCC(=O)O)C(C)(C(=O)O)C5CCC43C)C2C1C` (stereo not drawn) [Compound 4, 3-O -Succinyl-11-keto-β-boswellic acid], the “LD50 in mcM” value with Artemia salina is on record as 69.0 mcM. Also, the “% inhibition @ 250 μM” value in the assay on 5-Lipoxygenase was determined as 41.1%.

As to `COC(=O)[C@]1(C)C2CC[C@]3(C)C(C(=O)C=C4C5[C@@H](C)[C@H](C)CC[C@]5(C)CC[C@]43C)[C@@]2(C)CC[C@H]1S` (stereo partly drawn) [Compound 15, Methyl 3α-thiohydroxy-11-ketours-12-en-24-oate], the LC50 in the assay on Artemia salina is 5.2 µM. For the same compound, in the assay with 5-Lipoxygenase, the “% inhibition @ 250 μM” value came out at 53.1%.

As to `COC(=O)[C@@]1(C)C(C#N)CC[C@@]2(C)C1CC[C@]1(C)C2C(=O)C=C2C3[C@@H](C)[C@H](C)CC[C@]3(C)CC[C@]21C` (stereo partly drawn) [Compound 14, Methyl 3α-cyano-11-ketours-12-en-24-oate], in the assay on Artemia salina, the LC50 is over 100 µM. The “% inhibition @ 250 μM” value in the assay with 5-Lipoxygenase was 3.71%.

`CC(=O)OC1CCC2(C)C(CCC3(C)C2C(=O)C=C2C4C(C)C(C)CCC4(C)CCC23C)C1(C)C(=O)N1CCNCC1` (stereo not drawn) [Compound 23, N-(3-O-Acetyl-11-keto-β-boswelloyl)-piperzine]: the “LD50 in mcM” value with Artemia salina came out at 0.88 mcM. In addition, in the assay with 5-Lipoxygenase, the “% inhibition @ 100 μM” value is reported as 34.9%.

As for `COC(=O)[C@]1(C)C2CC[C@]3(C)C(C(=O)C=C4C5[C@@H](C)[C@H](C)CC[C@]5(C)CC[C@]43C)[C@@]2(C)CC[C@@H]1O` (stereo partly drawn) [Compound 12, Methyl 3β-hydroxy-11-ketours-12-en-24-oate], the LC50 in the assay on Artemia salina is over 100 µM. Also, in the assay with 5-Lipoxygenase, the “% inhibition @ 250 μM” value is reported as 0.37%.

On to `CC1CCC2(C)CCC3(C)C(=CC(=O)C4C5(C)CCC(OC=O)C(C)(C(=O)O)C5CCC43C)C2C1C` (stereo not drawn) [Compound 1, 3-O-Formyl-11-keto-β-boswellic acid], for which the “LD50 in mcM” value in the assay on Artemia salina was 55.0 mcM. Further, in the assay with 5-Lipoxygenase, the “% inhibition @ 250 μM” value worked out at 5.5%.

Regarding `COc1cc(C(=O)O[C@@H]2CC[C@@]3(C)C(CC[C@]4(C)C3C(=O)C=C3C5[C@@H](C)[C@H](C)CC[C@]5(C)CC[C@]34C)[C@@]2(C)C(=O)O)cc(O)c1O` (stereo partly drawn) [Compound 3, 3-O-(5′-O-methylgalloyl)-11-keto-β-boswellic acid], the LC50 in the assay on Artemia salina stood at 33 µM. In addition, the “% inhibition @ 100 μM” value with 5-Lipoxygenase was found to be 27.4%.

For `CC(=O)OC1CC[C@@]2(C)C(CC[C@]3(C)C2C(=O)C=C2C4[C@@H](C)[C@H](C)CC[C@]4(C)CC[C@]23C)[C@@]1(C)N` (stereo partly shown) [Compound 25, 3-Acetoxy-4-amino-11-keto-24-norurs-12-ene], the LC50 in the assay with Artemia salina came out at 6 µM. Also, in the assay on 5-Lipoxygenase, the “% inhibition @ 250 μM” value is recorded as 60.5%.

As to `CC(=O)OC1CC[C@@]2(C)C(CC[C@]3(C)C2C(=O)C=C2C4[C@@H](C)[C@H](C)CC[C@]4(C)CC[C@]23C)[C@@]1(C)C(N)=O` (stereo partly drawn) [Compound 19, 3-O-Acetyl-11-keto-β-boswellic acid amide], the LC50 in the assay on Artemia salina turned out to be 4.6 µM. Also, in the assay with 5-Lipoxygenase, the “% inhibition @ 250 μM” value came to 35.8%.

Regarding `CC1CCC2(C)CCC3(C)C(=CC(=O)C4C5(C)CCC(OC(=O)C=Cc6ccc(O)cc6)C(C)(C(=O)O)C5CCC43C)C2C1C` (stereo not drawn) [Compound 6, 3-O-[4′-Hydroxycinnamoyl]-11-keto-β-boswellic acid], the “LD50 in mcM” value in the assay with Artemia salina worked out at 6.0 mcM. In the assay with 5-Lipoxygenase, the “% inhibition @ 250 μM” value stood at 11.3%.

As for `COc1ccc(C=CC(=O)OC2CCC3(C)C(CCC4(C)C3C(=O)C=C3C5C(C)C(C)CCC5(C)CCC34C)C2(C)C(=O)O)cc1OC` (stereo not drawn) [Compound 7, 3-O -(3′,4′-dimethoxycinnamoyl)-11-keto-β-boswellic acid], the “LD50 in mcM” value in the assay on Artemia salina is 6.2 mcM. The “% inhibition @ 250 μM” value in the assay with 5-Lipoxygenase was 17.8%.

Regarding `CC(=O)OC1CC[C@@]2(C)C(CC[C@]3(C)C2C(=O)C=C2C4[C@@H](C)[C@H](C)CC[C@]4(C)CC[C@]23C)[C@@]1(C)C(=O)OCCN(C)C` (stereo partly drawn) [Compound 18, (2′-N,N-Dimethylaminoethyl) 3-O-acetyl-11-keto-β-boswellate], the LC50 with Artemia salina was over 100 µM. Besides, in the assay on 5-Lipoxygenase, the “% inhibition @ 100 μM” value was determined as 25.4%.

`COC(=O)[C@]1(C)C2CC[C@]3(C)C(C(=O)C=C4C5[C@@H](C)[C@H](C)CC[C@]5(C)CC[C@]43C)[C@@]2(C)CC[C@@H]1Br` (stereo partly drawn) [Compound 13, Methyl 3β-bromo-11-ketours-12-en-24-oate]: in the assay on Artemia salina, the LC50 was over 100 µM. The “% inhibition @ 250 μM” value with 5-Lipoxygenase was found to be 17.6%.

Turning to `CC(=O)OC1CC[C@@]2(C)C(CC[C@]3(C)C2C(=O)C=C2C4[C@@H](C)[C@H](C)CC[C@]4(C)CC[C@]23C)[C@@H]1C` (stereo partly shown) [Compound 17, 3-Acetoxy-11-keto-24-norurs-12-ene], the LC50 in the assay with Artemia salina was over 100 µM. Further, the “% inhibition @ 250 μM” value in the assay on 5-Lipoxygenase amounted to 0%.

For the compound `CC(=O)OC1CC[C@@]2(C)C(CC[C@]3(C)C2C(=O)C=C2C4[C@@H](C)[C@H](C)CC[C@]4(C)CC[C@]23C)[C@@]1(C)C(=O)NCCO` (stereo partly drawn) [Compound 22, N-(3-O-Acetyl-11-keto-β-boswelloyl)-2-aminoethanol], the LC50 with Artemia salina was over 100 µM. The “% inhibition @ 250 μM” value in the assay on 5-Lipoxygenase came to 10.4%.

As to `C[C@H](N)C(=O)O[C@@H]1CC[C@@]2(C)C(CC[C@]3(C)C2C(=O)C=C2C4[C@@H](C)[C@H](C)CC[C@]4(C)CC[C@]23C)[C@@]1(C)C(=O)O` (stereo partly drawn) [Compound 11, 3-O-Alanyl-11-keto-β-boswellic acid hydrochloride], in the assay on Artemia salina, the “LD50 in mcM” value is 29.0 mcM. Also, the “% inhibition @ 100 μM” value in the assay with 5-Lipoxygenase came to 33.6%.

For the compound `CC(=O)OC1CC[C@@]2(C)C(CC[C@]3(C)C2C(=O)C=C2C4[C@@H](C)[C@H](C)CC[C@]4(C)CC[C@]23C)[C@@]1(C)C#N` (stereo partly shown) [Compound 26, 3-Acetoxy-4-cyano-11-keto-24-norurs-12-ene], in the assay on Artemia salina, the LC50 is over 100 µM. Moreover, the “% inhibition @ 250 μM” value in the assay on 5-Lipoxygenase stood at 9.8%.

Turning to `CC(=O)OC1CC[C@@]2(C)C(CC[C@]3(C)C2C(=O)C=C2C4[C@@H](C)[C@H](C)CC[C@]4(C)CC[C@]23C)[C@@]1(C)C(=O)NCCN` (stereo partly drawn) [Compound 21, N-(3-O-Acetyl-11-keto-β-boswelloyl)-ethylenediamine], the LC50 in the assay on Artemia salina was 71 µM. Further, in the assay with 5-Lipoxygenase, the “% inhibition @ 250 μM” value is recorded as 76.6%.
